In data set [1] the target is T1, Hepatocyte growth factor receptor (Homo sapiens, UniProt P08581).
Description: Inhibition of human recombinant His-tagged cMET cytoplasmic domain expressed in baculovirus expression system using biotin as substrate preincubated for 5 mins followed by substrate addition and measured after 30 to 60 mins by HTRF assay
Data set [2] is described as follows: Tmax in rat at 10 mg/kg, po. Particulars: in vivo. It is filed as ADME, organism-based.
Data set [3] deals with U-87 MG. Nature of the data set: animal or person. Particulars: Mus musculus, po, 504 h, read-out: TGI.
Description: Antitumour activity against human U87MG cells xenografted in athymic nude mouse assessed as tumor growth inhibition at 25 mg/kg, po administrated for 3 weeks by caliper method relative to control
A short description of data set [4]: Oral bioavailability in rat at 10 mg/kg. Particulars: in vivo. It counts as ADME, organism-based.
Data set [5] in a line: Cmax in rat at 10 mg/kg, po. Details: dose 10 mg/kg, route oral. Particulars: in vivo. It counts as ADME, organism-based.
The nature of data set [6]: Half life in rat at 10 mg/kg, po. It is filed as ADME, organism-based. Particulars: in vivo.
Data set [7] concerns U-87 MG. Briefly: Antitumour activity against human U87MG cells xenografted in athymic nude mouse assessed as tumor growth inhibition at 40 mg/kg, po administrated for 3 weeks by caliper method relative to control. Particulars: 504 h, read-out: TGI.
Data set [8] in a line: AUC (0 to infinity) in rat at 2.5 mg/kg, iv. It is filed as ADME, organism-based. Particulars: in vivo. On the set-up: dose 2.5 mg/kg, route intravenous, time infinity.
Data set [9] in a line: Half life in rat at 2.5 mg/kg, iv. It is filed as ADME, organism-based. Particulars: in vivo.
Data set [10] is described as follows: AUC (0 to infinity) in rat at 10 mg/kg, po. It is filed as ADME, organism-based. Details: dose 10 mg/kg, route oral, time infinity. Particulars: in vivo.
Data set [11] concerns U-87 MG. Nature of the data set: Antitumour activity against human U87MG cells xenografted in orally dosed athymic nude mouse assessed as inhibition in tumor growth administrated for 3 weeks by caliper method. It is filed as functional. Particulars: for inhibition: U-87MG ATCC; for minimal effective dose: po, 504 h, read-out: MED.
Data set [12] is described as follows: Clearance in rat at 2.5 mg/kg, iv. It is filed as ADME, organism-based. Particulars: in vivo.
Data set [13] in a line: Volume of distribution in rat at 2.5 mg/kg, iv. It counts as ADME, organism-based. Particulars: in vivo.
Data set [14] concerns the target Vascular endothelial growth factor receptor 3 (Homo sapiens) (UniProt P35916). Briefly: Inhibition of FLT4 (unknown origin) at 1 uM relative to control.
Data set [15] deals with Proto-oncogene tyrosine-protein kinase receptor Ret (Homo sapiens) (UniProt P07949). Nature of the data set: Inhibition of RET (unknown origin) at 1 uM relative to control.
Data set [16] concerns the target Vascular endothelial growth factor receptor 1 (Homo sapiens) (UniProt P17948). Briefly: Inhibition of FLT1 (unknown origin) at 1 uM relative to control.
Data set [17] has as its system HT-29. Briefly: Antitumour activity against human HT-29 cells xenografted in athymic nude mouse assessed as tumor growth inhibition at 25 mg/kg, po administrated for 3 weeks by caliper method relative to control. It counts as functional. Particulars: HT-29, po, 504 h, read-out: TGI. (Xenograft models place foreign cells or tissue in a host animal.)
Data set [18] deals with Tyrosine-protein kinase receptor UFO (Homo sapiens) (UniProt P30530). Briefly: Inhibition of AXL (unknown origin) at 1 uM relative to control.
Chain of Tyrosine-protein kinase receptor UFO (Homo sapiens) (P30530 whole entry): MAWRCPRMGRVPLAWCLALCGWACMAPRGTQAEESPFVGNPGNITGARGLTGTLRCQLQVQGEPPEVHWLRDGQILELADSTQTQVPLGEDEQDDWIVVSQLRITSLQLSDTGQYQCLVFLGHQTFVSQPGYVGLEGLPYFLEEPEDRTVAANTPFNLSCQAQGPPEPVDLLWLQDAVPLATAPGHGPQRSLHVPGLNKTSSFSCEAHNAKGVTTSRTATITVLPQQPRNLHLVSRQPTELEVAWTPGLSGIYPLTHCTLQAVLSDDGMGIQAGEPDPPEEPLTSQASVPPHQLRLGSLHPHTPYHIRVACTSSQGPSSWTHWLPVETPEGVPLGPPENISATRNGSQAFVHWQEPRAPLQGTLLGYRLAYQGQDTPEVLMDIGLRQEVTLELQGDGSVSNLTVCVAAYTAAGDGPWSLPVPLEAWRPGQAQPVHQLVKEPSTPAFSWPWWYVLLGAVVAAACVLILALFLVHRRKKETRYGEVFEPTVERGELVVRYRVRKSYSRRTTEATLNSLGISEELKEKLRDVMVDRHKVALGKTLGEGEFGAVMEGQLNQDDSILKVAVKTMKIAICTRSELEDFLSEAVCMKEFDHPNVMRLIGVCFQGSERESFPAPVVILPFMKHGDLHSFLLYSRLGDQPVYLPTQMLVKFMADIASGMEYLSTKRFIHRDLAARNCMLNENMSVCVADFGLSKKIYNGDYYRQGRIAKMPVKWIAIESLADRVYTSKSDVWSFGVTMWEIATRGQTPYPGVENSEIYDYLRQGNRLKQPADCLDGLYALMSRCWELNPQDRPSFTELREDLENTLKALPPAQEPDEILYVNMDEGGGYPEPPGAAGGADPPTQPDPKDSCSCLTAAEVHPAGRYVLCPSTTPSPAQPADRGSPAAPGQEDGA
For data set [19], the target named is High affinity nerve growth factor receptor (Homo sapiens) (UniProt P04629). Briefly: Inhibition of TRKA (unknown origin) at 1 uM relative to control.
Data set [20] relates to HT-29. Nature of the data set: Antitumour activity against human HT-29 cells xenografted in athymic nude mouse assessed as tumor growth inhibition at 50 mg/kg, po administrated for 3 weeks by caliper method relative to control. It is filed as functional. Particulars: HT-29, po, 504 h, read-out: TGI.
Data set [21] can be described thus: Fraction unbound in rat plasma at 2 uM. It counts as ADME, cell-free.
Data set [22] deals with Proto-oncogene tyrosine-protein kinase ROS (Homo sapiens) (UniProt P08922). Nature of the data set: Inhibition of ROS (unknown origin) at 1 uM relative to control.
In data set [23] the target is Tyrosine-protein kinase Fgr (Homo sapiens) (UniProt P09769). Briefly: Inhibition of FGR (unknown origin) at 1 uM relative to control.
For data set [24], the target named is Discoidin domain-containing receptor 2 (Homo sapiens) (UniProt Q16832). Briefly: Inhibition of DDR2 (unknown origin) at 1 uM relative to control.
Chain of Discoidin domain-containing receptor 2 (Homo sapiens) (Q16832 whole entry, the tested form may be a part): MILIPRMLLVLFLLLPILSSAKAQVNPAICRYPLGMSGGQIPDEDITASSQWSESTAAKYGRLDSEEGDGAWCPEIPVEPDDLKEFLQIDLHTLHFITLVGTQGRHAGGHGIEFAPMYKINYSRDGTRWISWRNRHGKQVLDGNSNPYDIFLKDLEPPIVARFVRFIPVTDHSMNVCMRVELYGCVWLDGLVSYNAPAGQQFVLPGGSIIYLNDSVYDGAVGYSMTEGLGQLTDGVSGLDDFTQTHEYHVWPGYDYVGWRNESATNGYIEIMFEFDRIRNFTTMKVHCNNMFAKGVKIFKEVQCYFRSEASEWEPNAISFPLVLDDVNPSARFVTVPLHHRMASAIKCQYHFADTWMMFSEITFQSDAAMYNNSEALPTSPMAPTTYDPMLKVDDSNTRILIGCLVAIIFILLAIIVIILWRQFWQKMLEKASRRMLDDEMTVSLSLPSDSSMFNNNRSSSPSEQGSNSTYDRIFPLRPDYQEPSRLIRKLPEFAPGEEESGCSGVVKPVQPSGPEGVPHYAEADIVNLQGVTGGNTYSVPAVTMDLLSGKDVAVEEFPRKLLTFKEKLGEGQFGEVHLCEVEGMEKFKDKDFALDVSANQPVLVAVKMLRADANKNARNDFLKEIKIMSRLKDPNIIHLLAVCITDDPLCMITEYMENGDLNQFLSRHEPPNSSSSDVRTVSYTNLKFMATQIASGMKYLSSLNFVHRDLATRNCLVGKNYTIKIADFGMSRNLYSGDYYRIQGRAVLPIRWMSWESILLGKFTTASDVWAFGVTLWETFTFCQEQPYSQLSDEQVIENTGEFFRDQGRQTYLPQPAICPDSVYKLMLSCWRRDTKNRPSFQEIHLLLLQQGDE
Data set [25] addresses Proto-oncogene tyrosine-protein kinase Src (Homo sapiens) (UniProt P12931). Briefly: Inhibition of SRC (1 to 530 residues)(unknown origin) at 1 uM relative to control.
The target of data set [26] is Tyrosine-protein kinase Lyn (Homo sapiens) (UniProt P07948). Briefly: Inhibition of LYN (unknown origin) at 1 uM relative to control.
In data set [27] the target is BDNF/NT-3 growth factors receptor (Homo sapiens) (UniProt Q16620). Briefly: Inhibition of TRKB (unknown origin) at 1 uM relative to control.
The target of data set [28] is Dual specificity tyrosine-phosphorylation-regulated kinase 2 (Homo sapiens) (UniProt Q92630). Briefly: Inhibition of DYRK2 (unknown origin) at 1 uM relative to control.
The target of data set [29] is Macrophage-stimulating protein receptor (Homo sapiens) (UniProt Q04912). Briefly: Inhibition of RON (unknown origin) at 1 uM relative to control.
Chain of Macrophage-stimulating protein receptor (Homo sapiens) (Q04912 25-304 limits assumed): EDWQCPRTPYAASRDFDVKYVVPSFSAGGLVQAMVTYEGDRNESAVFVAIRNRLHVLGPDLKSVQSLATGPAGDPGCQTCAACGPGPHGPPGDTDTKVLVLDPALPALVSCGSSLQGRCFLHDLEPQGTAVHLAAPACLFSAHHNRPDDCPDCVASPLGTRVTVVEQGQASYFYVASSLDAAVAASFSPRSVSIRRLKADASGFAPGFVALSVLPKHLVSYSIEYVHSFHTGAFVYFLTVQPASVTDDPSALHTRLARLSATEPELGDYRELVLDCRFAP
Chain of Macrophage-stimulating protein receptor (Homo sapiens) (Q04912 310-1400 limits assumed): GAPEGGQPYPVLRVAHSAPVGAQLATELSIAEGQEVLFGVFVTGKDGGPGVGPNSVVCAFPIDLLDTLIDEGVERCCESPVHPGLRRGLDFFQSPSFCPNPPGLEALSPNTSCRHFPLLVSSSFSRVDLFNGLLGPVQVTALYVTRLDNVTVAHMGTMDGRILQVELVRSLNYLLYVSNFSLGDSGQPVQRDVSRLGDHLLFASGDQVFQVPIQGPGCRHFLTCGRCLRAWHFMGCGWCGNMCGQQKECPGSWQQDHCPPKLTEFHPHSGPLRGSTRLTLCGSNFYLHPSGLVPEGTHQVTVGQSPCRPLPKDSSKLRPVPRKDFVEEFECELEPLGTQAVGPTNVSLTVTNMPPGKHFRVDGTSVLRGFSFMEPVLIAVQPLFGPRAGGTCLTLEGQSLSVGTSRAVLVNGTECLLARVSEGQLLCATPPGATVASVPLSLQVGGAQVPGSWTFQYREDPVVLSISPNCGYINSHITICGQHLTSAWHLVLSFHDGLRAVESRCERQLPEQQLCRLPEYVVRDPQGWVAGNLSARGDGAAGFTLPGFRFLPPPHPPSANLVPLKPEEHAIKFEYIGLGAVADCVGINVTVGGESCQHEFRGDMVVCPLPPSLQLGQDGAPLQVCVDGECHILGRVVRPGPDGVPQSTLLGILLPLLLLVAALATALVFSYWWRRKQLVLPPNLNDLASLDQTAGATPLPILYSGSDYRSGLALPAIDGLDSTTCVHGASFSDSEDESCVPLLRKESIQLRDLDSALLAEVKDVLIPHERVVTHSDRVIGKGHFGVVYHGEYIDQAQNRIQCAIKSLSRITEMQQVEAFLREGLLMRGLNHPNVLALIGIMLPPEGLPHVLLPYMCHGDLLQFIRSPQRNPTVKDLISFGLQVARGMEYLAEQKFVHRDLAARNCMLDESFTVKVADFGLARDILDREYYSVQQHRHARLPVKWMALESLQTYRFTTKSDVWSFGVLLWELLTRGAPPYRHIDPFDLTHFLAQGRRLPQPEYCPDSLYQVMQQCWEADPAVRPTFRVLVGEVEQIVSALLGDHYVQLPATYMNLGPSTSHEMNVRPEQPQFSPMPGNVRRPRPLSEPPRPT
In data set [30] the target is Tyrosine-protein kinase Lck (Homo sapiens) (UniProt P06239). Nature of the data set: Inhibition of LCK (unknown origin) at 1 uM relative to control.
The target in data set [31] is Ephrin type-B receptor 4 (Homo sapiens) (UniProt P54760). Nature of the data set: Inhibition of EphB4 (unknown origin) at 1 uM relative to control.
In data set [32] the target is T1, Hepatocyte growth factor receptor. This is another data set of the same source.
Description: Inhibition of HGF-induced cMET autophosphorylation in human MKN45 cells preincubated for 1 hr followed by HGF addition and measured after 10 mins by ELISA
Data set [33] deals with U-87 MG. Nature of the data set: Antitumour activity against human U87MG cells xenografted in athymic nude mouse assessed as tumor growth inhibition at 12.5 mg/kg, po administrated for 3 weeks by caliper method relative to control. It is filed as functional, U-87MG ATCC. Particulars: 504 h, read-out: TGI.
A short description of data set [34]: Fraction unbound in human plasma at 2 uM. It counts as ADME, cell-free.
For data set [35], the target named is Ephrin type-A receptor 3 (Homo sapiens) (UniProt P29320). Briefly: Inhibition of EphA3 (unknown origin) at 1 uM relative to control.
Data set [36] relates to U-87 MG. Nature of the data set: Antitumour activity against human U87MG cells xenografted in athymic nude mouse assessed as tumor growth inhibition at 50 mg/kg, po administrated for 3 weeks by caliper method relative to control. It is filed as functional, U-87MG ATCC. Particulars: 504 h, read-out: TGI.
Data set [37] deals with Tyrosine-protein kinase Fes/Fps (Homo sapiens) (UniProt P07332). Nature of the data set: Inhibition of FES (unknown origin) at 1 uM relative to control.
Data set [38] has as its target Tyrosine-protein kinase receptor TYRO3 (Homo sapiens) (UniProt Q06418). Briefly: Inhibition of RSE (unknown origin) at 1 uM relative to control.
Data set [39] has as its target Aurora kinase B (Homo sapiens) (UniProt Q96GD4). Briefly: Inhibition of AuroraB (unknown origin) at 1 uM relative to control.
Data set [40] in a line: Fraction unbound in mouse plasma at 2 uM. It is filed as ADME, cell-free.
Data set [41] deals with Macrophage colony-stimulating factor 1 receptor (Homo sapiens) (UniProt P07333). Briefly: Inhibition of FMS (unknown origin) at 1 uM relative to control.
The target in data set [42] is Tyrosine-protein kinase Mer (Homo sapiens) (UniProt Q12866). Nature of the data set: Inhibition of MER (unknown origin) at 1 uM relative to control.
The target of data set [43] is cAMP-dependent protein kinase catalytic subunit alpha (Homo sapiens) (UniProt P17612). Nature of the data set: Inhibition of PKA (unknown origin) at 1 uM relative to control.
In data set [44] the target is Vascular endothelial growth factor receptor 2 (Homo sapiens, UniProt P35968).
Description: Inhibition of recombinant human His-tagged VEGFR2 cytoplasmic domain expressed in baculovirus expression system using biotin as substrate preincubated for 5 mins followed by substrate addition and measured after 30 to 60 mins by HTRF assay

The values below come from ChEMBL document CHEMBL4364278, “2,7-naphthyridinone-based MET kinase inhibitors: A promising novel scaffold for antitumor drug development” (Eur J Med Chem, 2019).

T1 sequence (P08581 whole entry): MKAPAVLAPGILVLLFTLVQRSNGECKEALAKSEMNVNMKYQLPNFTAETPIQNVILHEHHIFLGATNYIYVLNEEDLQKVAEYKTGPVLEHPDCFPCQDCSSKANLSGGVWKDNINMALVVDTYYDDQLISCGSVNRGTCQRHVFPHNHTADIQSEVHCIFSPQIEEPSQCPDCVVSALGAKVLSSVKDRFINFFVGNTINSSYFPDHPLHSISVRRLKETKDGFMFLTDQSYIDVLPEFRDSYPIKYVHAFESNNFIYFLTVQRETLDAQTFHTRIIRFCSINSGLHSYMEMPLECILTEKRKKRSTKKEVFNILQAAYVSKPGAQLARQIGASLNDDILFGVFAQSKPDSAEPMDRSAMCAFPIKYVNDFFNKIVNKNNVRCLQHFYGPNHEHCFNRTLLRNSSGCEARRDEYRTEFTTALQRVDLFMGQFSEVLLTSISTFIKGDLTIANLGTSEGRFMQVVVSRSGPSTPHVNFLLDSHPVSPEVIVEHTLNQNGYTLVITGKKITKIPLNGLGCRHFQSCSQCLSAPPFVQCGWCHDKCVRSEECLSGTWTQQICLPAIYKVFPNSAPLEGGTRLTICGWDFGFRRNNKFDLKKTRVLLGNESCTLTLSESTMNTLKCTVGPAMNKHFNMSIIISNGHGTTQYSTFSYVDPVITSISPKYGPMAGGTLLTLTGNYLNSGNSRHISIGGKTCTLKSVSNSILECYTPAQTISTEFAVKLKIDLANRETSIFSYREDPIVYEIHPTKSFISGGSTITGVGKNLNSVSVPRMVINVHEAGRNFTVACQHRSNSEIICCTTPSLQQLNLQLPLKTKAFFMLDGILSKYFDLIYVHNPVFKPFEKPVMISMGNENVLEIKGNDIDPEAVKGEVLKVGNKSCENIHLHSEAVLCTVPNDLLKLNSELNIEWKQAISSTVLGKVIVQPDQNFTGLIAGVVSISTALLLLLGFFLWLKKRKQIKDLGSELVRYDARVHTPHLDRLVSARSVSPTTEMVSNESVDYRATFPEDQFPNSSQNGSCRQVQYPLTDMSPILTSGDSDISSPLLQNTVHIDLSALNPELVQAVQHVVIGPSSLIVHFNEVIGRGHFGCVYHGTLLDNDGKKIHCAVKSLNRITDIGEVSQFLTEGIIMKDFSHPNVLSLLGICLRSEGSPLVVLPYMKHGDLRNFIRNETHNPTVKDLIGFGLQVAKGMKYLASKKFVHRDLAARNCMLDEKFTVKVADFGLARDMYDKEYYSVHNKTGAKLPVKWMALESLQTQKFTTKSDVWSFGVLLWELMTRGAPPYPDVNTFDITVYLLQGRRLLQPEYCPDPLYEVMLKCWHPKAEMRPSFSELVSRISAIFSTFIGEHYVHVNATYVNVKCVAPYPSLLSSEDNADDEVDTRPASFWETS
Chain of Proto-oncogene tyrosine-protein kinase Src (Homo sapiens) (P12931 2-536 limits assumed): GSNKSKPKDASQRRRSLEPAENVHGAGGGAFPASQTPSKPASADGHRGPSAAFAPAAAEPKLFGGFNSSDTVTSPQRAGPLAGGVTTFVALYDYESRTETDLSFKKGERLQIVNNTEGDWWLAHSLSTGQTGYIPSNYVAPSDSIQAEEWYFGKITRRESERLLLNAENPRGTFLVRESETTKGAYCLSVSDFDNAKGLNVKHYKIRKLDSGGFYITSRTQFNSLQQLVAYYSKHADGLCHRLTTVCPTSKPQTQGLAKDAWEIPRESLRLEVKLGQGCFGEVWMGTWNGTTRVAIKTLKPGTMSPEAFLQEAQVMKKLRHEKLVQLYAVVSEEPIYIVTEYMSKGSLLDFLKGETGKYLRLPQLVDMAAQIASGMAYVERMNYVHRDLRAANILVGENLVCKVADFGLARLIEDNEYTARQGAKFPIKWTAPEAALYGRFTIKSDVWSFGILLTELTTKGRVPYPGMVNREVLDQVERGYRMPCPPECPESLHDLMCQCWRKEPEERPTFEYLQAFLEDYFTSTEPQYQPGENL

Usually IC50 stands for the point on the concentration scale where inhibition reaches its midpoint. A higher IC50 goes with a need for much substance. Regarding `Cc1cc2ccnc(Nc3ccc(Oc4ccnc(N)c4Cl)c(F)c3)c2c(=O)n1-c1ccc(OC(F)(F)F)cc1`, in data set [1], the half-inhibitory concentration (IC50) is > 1000 nM.
A word on the Tmax: it is the time at which the peak concentration occurs. The bioavailability is the share of a dose that reaches the circulation, judged against a reference dose that is usually intravenous. High values mean much systemic uptake, low ones little systemic uptake. What is called Cmax is the peak of the concentration-time curve. The term half-life denotes how long it takes for the measured level to halve. The AUC is the area under the concentration-time curve, a measure of exposure. The term AUC(0-inf) denotes the area under the concentration-time curve extrapolated to infinity. A low value points to low exposure. For orientation: inhibition means the relative decrease from the control value, in per cent. For orientation: Vd means a proportionality between amount in the body and measured concentration, not a real space. Regarding `Cc1cc2ccnc(Nc3ccc(Oc4ccnc(N)c4Cl)c(F)c3)c2c(=O)n1-c1ccc(F)cc1`, the Tmax in [2] was found to be 2.3 h. In addition, in the data set with U-87 MG [3], the inhibition in vivo at 25 mg/kg stood at 44%. The compound also returned a bioavailability in data set [4] of 51%. In data set [5], this compound returned a Cmax of 3700 ng/mL. The compound also showed a half-life in data set [6] of 660 min. Also, in the data set on U-87 MG [7], the inhibition in vivo at 40 mg/kg was 72%. In data set [8], this compound had an AUC of 10.5 µg·h/mL. In addition, the half-life in data set [9] is 420 min. Moreover, in data set [10], the AUC(0-inf) turned out to be 21200 ng·h/mL. In addition, in the data set on U-87 MG [11], the inhibition entry is “Dose-dependent effect” and the minimal effective dose was found to be 32.5 mg/kg. In data set [12], this compound had a CL of 6.2 L/h/kg. The compound also yielded a Vd in data set [13] of 2.4 L/kg.
The clearance is the volume of plasma or blood freed of the substance per unit of time. A high value points to a high capacity for elimination. Consider `Cc1cc2ccnc(Nc3ccc(Oc4ccnc(N)c4I)c(F)c3)c2c(=O)n1-c1ccc(F)cc1`, for which, in data set [2], the Tmax amounted to 1.5 h. This compound showed a bioavailability in data set [4] of 49%. Besides, the Cmax in [5] was 2700 ng/mL. Besides, the half-life in data set [6] is 294 min; in data set [9], 252 min. The AUC(0-inf) is 13100 ng·h/mL in [8] and 25700 ng·h/mL in [10]. The same compound had a clearance in data set [12] of 6.67 mL/min/kg. The Vd in [13] worked out at 2.9 L/kg.
In the case of `Nc1nccc(Oc2ccc(Nc3nccc4ccn(-c5ccc(F)cc5)c(=O)c34)cc2F)c1Cl`, the inhibition in [14] turned out to be 100%; in [15] it was 96%; in [16], 95%; in [18] it was 97%; in data set [19], 99%; in data set [22] it was 87%. Also, the inhibition is 62% in [23]; 98% in data set [24]; 35% in [25]; 43% in [26]; 100% in data set [27]; -9% in data set [28]. Further, the inhibition in data set [29] was 100%; in [30], 75%; in data set [31], 10%; in data set [35], 38%; with U-87 MG [11], “Dose-dependent effect”; in [37] it was 10%. The inhibition is 83% in data set [38]; 44% in data set [39]; 88% in data set [41]; 100% in data set [42]; 43% in [43]. Besides, the Tmax in [2] stood at 1.2 h. The inhibition in vivo at 25 mg/kg in the data set on HT-29 [17] stood at 50%; with U-87 MG [3], 100%. For the same compound, the bioavailability in data set [4] is 54%. Also, the values for the inhibition in vivo at 50 mg/kg with HT-29 [20] and with U-87 MG [36] were 95% and 114%, respectively. Further, the Cmax in [5] was 1600 ng/mL. In addition, the Fu in data set [21], in [34] and in data set [40] was < 0.5% each time. Moreover, the half-life is 306 min in [6] and 192 min in data set [9]. For the same compound, the values for the AUC(0-inf) in data set [8] and in [10] were 3100 ng·h/mL and 6700 ng·h/mL, respectively. Further, half-maximal inhibition in data set [32] (IC50) required 69 nM. Besides, the inhibition in vivo at 12.5 mg/kg with U-87 MG [33] was 53%. Besides, the minimal effective dose in the data set on U-87 MG [11] came to 12.5 mg/kg. The same compound gave a clearance in data set [12] of 13.3 mL/min/kg. For the same compound, the Vd in data set [13] came to 3.6 L/kg.
In the case of `CCOc1ccn(-c2ccc(F)cc2)c(=O)c1C(=O)Nc1ccc(Oc2ccnc(N)c2Cl)c(F)c1` [BMS-777607], the IC50 in data set [44] came out at 139 nM; in data set [1], 7.6 nM; in data set [32] it was 46.6 nM. In addition, the inhibition in vivo at 25 mg/kg with HT-29 [17] came to 15%; with U-87 MG [3] it was 98%.
